Data reported in patent US9850283B2, “Macrocyclic inhibitors of the PD-1/PD-L1 and CD80(B7-1)/PD-L1 protein/protein interactions” (BRISTOL-MYERS SQUIBB COMPANY, priority 2013, dated 2017).
Starred links: 1 amine or outer side, 2 acyl side, 3 side chain; linkers in the order of their positions; H or OH if unused. Positions of bridges follow the written chain, without caps; N, C: chain ends. Non-standard residues stand in square brackets, D forms with d. Residues, ends and D or L forms follow the SMILES beside them. X18 = CS(=O)(=O)Nc1ccc(C[C@H](N[*:1])C(=O)[*:2])cc1; Ala(indol-4-yl) = N[C@@H](Cc1cccc2[nH]ccc12)C(=O)O; Phe(3,4-(OMe)2) = COc1ccc(C[C@H](N)C(=O)O)cc1OC; Phe(3,4-Cl2) = N[C@@H](Cc1ccc(Cl)c(Cl)c1)C(=O)O; Phe(3-CF3) = N[C@@H](Cc1cccc(C(F)(F)F)c1)C(=O)O; Phe(4-COOH) = N[C@@H](Cc1ccc(C(=O)O)cc1)C(=O)O; Phe(3,4-F2) = N[C@@H](Cc1ccc(F)c(F)c1)C(=O)O; Ala(4-thiazolyl) = N[C@@H](Cc1cscn1)C(=O)O; Phe(3-Cl) = N[C@@H](Cc1cccc(Cl)c1)C(=O)O; Phe(3-OMe) = COc1cccc(C[C@H](N)C(=O)O)c1; Ala(2-furyl) = N[C@@H](Cc1ccco1)C(=O)O; Phe(2-Cl) = N[C@@H](Cc1ccccc1Cl)C(=O)O; Phe(3-Me) = Cc1cccc(C[C@H](N)C(=O)O)c1; Phe(2-Me) = Cc1ccccc1C[C@H](N)C(=O)O; NMeNle = CCCC[C@H](NC)C(=O)O; NMeA = CN[C@@H](C)C(=O)O; Sar = CNCC(=O)O

Columns and labels:
[1] = target: T1, LK35.2-hPD-L1 cells / PE-labeled PD-1-Ig (Homo sapiens, UniProt Q9NZQ7); test: LK35.2-hPD-L1 cell binding high-content screening assay; assay type: cell-based; conditions: cluster symbol; cell line of CBA not given (LK35.2-hPD-L1 or 293T-hPD-L1); read-out: CBA IC50 cluster
T1 construct: expressed in transfected cells; host or cells: LK35.2 mouse B cell line
T1 sequence (Q9NZQ7 19-290): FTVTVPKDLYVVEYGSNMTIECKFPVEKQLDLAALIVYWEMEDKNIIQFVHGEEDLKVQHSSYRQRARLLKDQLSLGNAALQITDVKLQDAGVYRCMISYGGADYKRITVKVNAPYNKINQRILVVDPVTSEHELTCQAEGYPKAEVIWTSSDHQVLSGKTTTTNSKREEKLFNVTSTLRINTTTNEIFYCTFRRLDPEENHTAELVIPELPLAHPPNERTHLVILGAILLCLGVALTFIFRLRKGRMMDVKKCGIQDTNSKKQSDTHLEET
Summary of the method: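 Mouse LK35.2 B cells stably overexpressing human PD-L1 were cultured overnight in RPMI with 10% FCS, then given compound and PE-labeled human PD-1-Ig (1 nM final) for 1 h at 37 °C. After three dPBS washes, bound fluorescence was quantified by high-content imaging.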

Human PD-L1/PD-1 = target: T2, Human PD-L1/PD-1 (Homo sapiens, UniProt Q9NZQ7); test: HTRF PD-1-Ig/PD-L1-His binding assay (human PD-L1); conditions: cluster symbol; read-out: HTRF IC50 cluster
T2 construct: made in house; host or cells: HEK293T
T2 sequence (Q9NZQ7 with tags, fused parts or gaps): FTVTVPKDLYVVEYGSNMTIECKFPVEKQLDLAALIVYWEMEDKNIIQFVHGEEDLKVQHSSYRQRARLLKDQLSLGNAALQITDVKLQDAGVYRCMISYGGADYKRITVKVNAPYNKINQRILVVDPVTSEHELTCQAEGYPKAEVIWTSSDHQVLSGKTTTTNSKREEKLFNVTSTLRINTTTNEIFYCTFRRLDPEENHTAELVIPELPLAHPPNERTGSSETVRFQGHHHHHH
Summary of the method: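 Ig- and His-fused extracellular PD-1/PD-L1 binding in BSA/Tween-20 dPBS. HTRF with Eu anti-Ig (1 nM final) and APC anti-His (20 nM final).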

Row | IC50 [1] | IC50 (Human PD-L1/PD-1) | SMILES
1 | 0.158 to 4.71 nM | 6.76 to 30.3 nM | CCCC[C@H]1C(=O)N(C)[C@@H](CCCC)C(=O)N[C@@H](CCCNC(=N)N)C(=O)N[C@H](C(=O)NCC(N)=O)CSCC(=O)N[C@@H](Cc2cccc3[nH]ccc23)C(=O)N(C)[C@@H](C)C(=O)N[C@@H](CC(N)=O)C(=O)N2CCC[C@H]2C(=O)N[C@@H](Cc2cnc[nH]2)C(=O)N[C@@H](CC(C)C)C(=O)N(C)CC(=O)N[C@@H](Cc2c[nH]c3ccccc23)C(=O)N[C@@H](CO)C(=O)N[C@@H](Cc2c[nH]c3ccccc23)C(=O)N1C [Example 1094] ({CH2CO}-[Ala(indol-4-yl)][NMeA]NPHL[Sar]WSW[NMeNle][NMeNle]RCG-NH2; thioether N-14)
2 | > 74.3 nM | > 30.5 nM | CCCC[C@H]1C(=O)N(C)[C@@H](CCCC)C(=O)N[C@@H](CCCNC(=N)N)C(=O)N[C@H](C(=O)NCC(N)=O)CSCC(=O)N[C@@H](Cc2ccc(C(=O)O)cc2)C(=O)N(C)[C@@H](C)C(=O)N[C@@H](CC(N)=O)C(=O)N2CCC[C@H]2C(=O)N[C@@H](Cc2cnc[nH]2)C(=O)N[C@@H](CC(C)C)C(=O)N(C)CC(=O)N[C@@H](Cc2c[nH]c3ccccc23)C(=O)N[C@@H](CO)C(=O)N[C@@H](Cc2c[nH]c3ccccc23)C(=O)N1C [Example 1095] ({CH2CO}-[Phe(4-COOH)][NMeA]NPHL[Sar]WSW[NMeNle][NMeNle]RCG-NH2; thioether N-14)
3 | > 74.3 nM | > 30.5 nM | CCCC[C@H]1C(=O)N(C)[C@@H](CCCC)C(=O)N[C@@H](CCCNC(=N)N)C(=O)N[C@H](C(=O)NCC(N)=O)CSCC(=O)N[C@@H](Cc2cscn2)C(=O)N(C)[C@@H](C)C(=O)N[C@@H](CC(N)=O)C(=O)N2CCC[C@H]2C(=O)N[C@@H](Cc2cnc[nH]2)C(=O)N[C@@H](CC(C)C)C(=O)N(C)CC(=O)N[C@@H](Cc2c[nH]c3ccccc23)C(=O)N[C@@H](CO)C(=O)N[C@@H](Cc2c[nH]c3ccccc23)C(=O)N1C [Example 1096] ({CH2CO}-[Ala(4-thiazolyl)][NMeA]NPHL[Sar]WSW[NMeNle][NMeNle]RCG-NH2; thioether N-14)
4 | 4.78 to 72.9 nM | 6.76 to 30.3 nM | CCCC[C@H]1C(=O)N(C)[C@@H](CCCC)C(=O)N[C@@H](CCCNC(=N)N)C(=O)N[C@H](C(=O)NCC(N)=O)CSCC(=O)N[C@@H](Cc2cccc(C)c2)C(=O)N(C)[C@@H](C)C(=O)N[C@@H](CC(N)=O)C(=O)N2CCC[C@H]2C(=O)N[C@@H](Cc2cnc[nH]2)C(=O)N[C@@H](CC(C)C)C(=O)N(C)CC(=O)N[C@@H](Cc2c[nH]c3ccccc23)C(=O)N[C@@H](CO)C(=O)N[C@@H](Cc2c[nH]c3ccccc23)C(=O)N1C [Example 1097] ({CH2CO}-[Phe(3-Me)][NMeA]NPHL[Sar]WSW[NMeNle][NMeNle]RCG-NH2; thioether N-14)
5 | 4.78 to 72.9 nM | 6.76 to 30.3 nM | CCCC[C@H]1C(=O)N(C)[C@@H](CCCC)C(=O)N[C@@H](CCCNC(=N)N)C(=O)N[C@H](C(=O)NCC(N)=O)CSCC(=O)N[C@@H](Cc2cccc(OC)c2)C(=O)N(C)[C@@H](C)C(=O)N[C@@H](CC(N)=O)C(=O)N2CCC[C@H]2C(=O)N[C@@H](Cc2cnc[nH]2)C(=O)N[C@@H](CC(C)C)C(=O)N(C)CC(=O)N[C@@H](Cc2c[nH]c3ccccc23)C(=O)N[C@@H](CO)C(=O)N[C@@H](Cc2c[nH]c3ccccc23)C(=O)N1C [Example 1098] ({CH2CO}-[Phe(3-OMe)][NMeA]NPHL[Sar]WSW[NMeNle][NMeNle]RCG-NH2; thioether N-14)
6 | > 74.3 nM | > 30.5 nM | CCCC[C@H]1C(=O)N(C)[C@@H](CCCC)C(=O)N[C@@H](CCCNC(=N)N)C(=O)N[C@H](C(=O)NCC(N)=O)CSCC(=O)N[C@@H](Cc2ccco2)C(=O)N(C)[C@@H](C)C(=O)N[C@@H](CC(N)=O)C(=O)N2CCC[C@H]2C(=O)N[C@@H](Cc2cnc[nH]2)C(=O)N[C@@H](CC(C)C)C(=O)N(C)CC(=O)N[C@@H](Cc2c[nH]c3ccccc23)C(=O)N[C@@H](CO)C(=O)N[C@@H](Cc2c[nH]c3ccccc23)C(=O)N1C [Example 1099] ({CH2CO}-[Ala(2-furyl)][NMeA]NPHL[Sar]WSW[NMeNle][NMeNle]RCG-NH2; thioether N-14)
7 | > 74.3 nM | > 30.5 nM | CCCC[C@H]1C(=O)N(C)[C@@H](CCCC)C(=O)N[C@@H](CCCNC(=N)N)C(=O)N[C@H](C(=O)NCC(N)=O)CSCC(=O)N[C@@H](Cc2ccc(NS(C)(=O)=O)cc2)C(=O)N(C)[C@@H](C)C(=O)N[C@@H](CC(N)=O)C(=O)N2CCC[C@H]2C(=O)N[C@@H](Cc2cnc[nH]2)C(=O)N[C@@H](CC(C)C)C(=O)N(C)CC(=O)N[C@@H](Cc2c[nH]c3ccccc23)C(=O)N[C@@H](CO)C(=O)N[C@@H](Cc2c[nH]c3ccccc23)C(=O)N1C [Example 1100] ({CH2CO}-[X18][NMeA]NPHL[Sar]WSW[NMeNle][NMeNle]RCG-NH2; thioether N-14)
8 | > 74.3 nM | > 30.5 nM | CCCC[C@H]1C(=O)N(C)[C@@H](CCCC)C(=O)N[C@@H](CCCNC(=N)N)C(=O)N[C@H](C(=O)NCC(N)=O)CSCC(=O)N[C@@H](Cc2ccccc2Cl)C(=O)N(C)[C@@H](C)C(=O)N[C@@H](CC(N)=O)C(=O)N2CCC[C@H]2C(=O)N[C@@H](Cc2cnc[nH]2)C(=O)N[C@@H](CC(C)C)C(=O)N(C)CC(=O)N[C@@H](Cc2c[nH]c3ccccc23)C(=O)N[C@@H](CO)C(=O)N[C@@H](Cc2c[nH]c3ccccc23)C(=O)N1C [Example 1101] ({CH2CO}-[Phe(2-Cl)][NMeA]NPHL[Sar]WSW[NMeNle][NMeNle]RCG-NH2; thioether N-14)
9 | > 74.3 nM | > 30.5 nM | CCCC[C@H]1C(=O)N(C)[C@@H](CCCC)C(=O)N[C@@H](CCCNC(=N)N)C(=O)N[C@H](C(=O)NCC(N)=O)CSCC(=O)N[C@@H](Cc2cccc(Cl)c2)C(=O)N(C)[C@@H](C)C(=O)N[C@@H](CC(N)=O)C(=O)N2CCC[C@H]2C(=O)N[C@@H](Cc2cnc[nH]2)C(=O)N[C@@H](CC(C)C)C(=O)N(C)CC(=O)N[C@@H](Cc2c[nH]c3ccccc23)C(=O)N[C@@H](CO)C(=O)N[C@@H](Cc2c[nH]c3ccccc23)C(=O)N1C [Example 1102] ({CH2CO}-[Phe(3-Cl)][NMeA]NPHL[Sar]WSW[NMeNle][NMeNle]RCG-NH2; thioether N-14)
10 | 4.78 to 72.9 nM | 6.76 to 30.3 nM | CCCC[C@H]1C(=O)N(C)[C@@H](CCCC)C(=O)N[C@@H](CCCNC(=N)N)C(=O)N[C@H](C(=O)NCC(N)=O)CSCC(=O)N[C@@H](Cc2ccc(Cl)c(Cl)c2)C(=O)N(C)[C@@H](C)C(=O)N[C@@H](CC(N)=O)C(=O)N2CCC[C@H]2C(=O)N[C@@H](Cc2cnc[nH]2)C(=O)N[C@@H](CC(C)C)C(=O)N(C)CC(=O)N[C@@H](Cc2c[nH]c3ccccc23)C(=O)N[C@@H](CO)C(=O)N[C@@H](Cc2c[nH]c3ccccc23)C(=O)N1C [Example 1103] ({CH2CO}-[Phe(3,4-Cl2)][NMeA]NPHL[Sar]WSW[NMeNle][NMeNle]RCG-NH2; thioether N-14)
11 | 4.78 to 72.9 nM | 6.76 to 30.3 nM | CCCC[C@H]1C(=O)N(C)[C@@H](CCCC)C(=O)N[C@@H](CCCNC(=N)N)C(=O)N[C@H](C(=O)NCC(N)=O)CSCC(=O)N[C@@H](Cc2ccc(F)c(F)c2)C(=O)N(C)[C@@H](C)C(=O)N[C@@H](CC(N)=O)C(=O)N2CCC[C@H]2C(=O)N[C@@H](Cc2cnc[nH]2)C(=O)N[C@@H](CC(C)C)C(=O)N(C)CC(=O)N[C@@H](Cc2c[nH]c3ccccc23)C(=O)N[C@@H](CO)C(=O)N[C@@H](Cc2c[nH]c3ccccc23)C(=O)N1C [Example 1104] ({CH2CO}-[Phe(3,4-F2)][NMeA]NPHL[Sar]WSW[NMeNle][NMeNle]RCG-NH2; thioether N-14)
12 | 4.78 to 72.9 nM | 6.76 to 30.3 nM | CCCC[C@H]1C(=O)N(C)[C@@H](CCCC)C(=O)N[C@@H](CCCNC(=N)N)C(=O)N[C@H](C(=O)NCC(N)=O)CSCC(=O)N[C@@H](Cc2ccc(OC)c(OC)c2)C(=O)N(C)[C@@H](C)C(=O)N[C@@H](CC(N)=O)C(=O)N2CCC[C@H]2C(=O)N[C@@H](Cc2cnc[nH]2)C(=O)N[C@@H](CC(C)C)C(=O)N(C)CC(=O)N[C@@H](Cc2c[nH]c3ccccc23)C(=O)N[C@@H](CO)C(=O)N[C@@H](Cc2c[nH]c3ccccc23)C(=O)N1C [Example 1105] ({CH2CO}-[Phe(3,4-(OMe)2)][NMeA]NPHL[Sar]WSW[NMeNle][NMeNle]RCG-NH2; thioether N-14)
13 | 4.78 to 72.9 nM | 6.76 to 30.3 nM | CCCC[C@H]1C(=O)N(C)[C@@H](CCCC)C(=O)N[C@@H](CCCNC(=N)N)C(=O)N[C@H](C(=O)NCC(N)=O)CSCC(=O)N[C@@H](Cc2ccccc2C)C(=O)N(C)[C@@H](C)C(=O)N[C@@H](CC(N)=O)C(=O)N2CCC[C@H]2C(=O)N[C@@H](Cc2cnc[nH]2)C(=O)N[C@@H](CC(C)C)C(=O)N(C)CC(=O)N[C@@H](Cc2c[nH]c3ccccc23)C(=O)N[C@@H](CO)C(=O)N[C@@H](Cc2c[nH]c3ccccc23)C(=O)N1C [Example 1106] ({CH2CO}-[Phe(2-Me)][NMeA]NPHL[Sar]WSW[NMeNle][NMeNle]RCG-NH2; thioether N-14)
14 | > 74.3 nM | > 30.5 nM | CCCC[C@H]1C(=O)N(C)[C@@H](CCCC)C(=O)N[C@@H](CCCNC(=N)N)C(=O)N[C@H](C(=O)NCC(N)=O)CSCC(=O)N[C@@H](Cc2cccc(C(F)(F)F)c2)C(=O)N(C)[C@@H](C)C(=O)N[C@@H](CC(N)=O)C(=O)N2CCC[C@H]2C(=O)N[C@@H](Cc2cnc[nH]2)C(=O)N[C@@H](CC(C)C)C(=O)N(C)CC(=O)N[C@@H](Cc2c[nH]c3ccccc23)C(=O)N[C@@H](CO)C(=O)N[C@@H](Cc2c[nH]c3ccccc23)C(=O)N1C [Example 1107] ({CH2CO}-[Phe(3-CF3)][NMeA]NPHL[Sar]WSW[NMeNle][NMeNle]RCG-NH2; thioether N-14)
